≈ marks a conversion by molar mass, not a printed value.
Key:
Format in all cases: cell-based
S. aureus ATCC 12601 = assay: MIC assay; details: Staphylococcus aureus, ATCC12601
Method: (§1) The staphylococci were cultured and maintained on Mueller-Hinton Medium (agar and broth) at pH 7.2; cultures were incubated aerobically at 37° C. for 19-20 hours.
(§2) This is a standard international method for quantitatively assessing the antimicrobial activity of a compound in a liquid medium. The method used a sterile 96-well microtitre plate, capable of holding about 200 μl of liquid per well. The wells contained liquid culture medium and ranges of decreasing concentrations of the relevant test compound in doubling dilutions (e.g. 1000, 500, 250, 125 . . . μg/ml, etc. down to 0.49 μg/ml). The culture media were as described above.
(§3) The wells were inoculated with a liquid suspension of freshly grown micro-organism and incubated under the conditions described above. After incubation, the microtitre plate was examined visually (with the aid of a light box) for cloudiness in each well, which would indicate microbial growth. The MIC value was recorded as the lowest concentration of test compound required to inhibit microbial growth, i.e. the lowest concentration for which the liquid in the well remained clear.
(§4) The assays included both negative (culture medium with no micro-organisms) and positive (culture medium plus diluting solvent plus micro-organism) controls.

S. aureus CPHL VISA Mu50 = assay: MIC assay; details: Staphylococcus aureus, resistance phenotype Van (intermediate)
Method: as §1, §2, §3, §4

[1] = system: S. epidermidis NCTC 11047; assay: MIC assay; details: Staphylococcus epidermidis, NCTC11047
Method: as §1, §2, §3, §4

[2] = system: S. epidermidis NCTC 11047; assay: MBC assay
Method: as §1
(§5) This assay, normally carried out after an MIC assay, determines the minimum concentration of a compound that is lethal to the micro-organism being tested.
(§6) These samples were then individually sub-cultured on antibiotic-free agar medium, under the incubation conditions described above. Following incubation they were examined visually for microbial growth.

[3] = system: S. saprophyticus NCTC 7292; assay: MBC assay
Method: as §1, §5, §6

[4] = system: Staphylococcus aureus ATCC 12600; assay: MBC assay
Method: as §1, §5, §6

[5] = system: Staphylococcus aureus ATCC 29213; assay: MBC assay; details: S. aureus ATCC 29213
Method: as §1, §5, §6

[6] = system: Staphylococcus auricularis ATCC 33753; assay: MBC assay
Method: as §1, §5, §6

[7] = system: Staphylococcus capitis ATCC 27840; assay: MBC assay
Method: as §1, §5, §6

[8] = system: Staphylococcus cohnii ATCC 29974; assay: MBC assay
Method: as §1, §5, §6

[9] = system: Staphylococcus haemolyticus ATCC 29970; assay: MBC assay
Method: as §1, §5, §6

[10] = system: Staphylococcus hominis ATCC 27844; assay: MBC assay
Method: as §1, §5, §6

[11] = system: Staphylococcus simulans ATCC 27848; assay: MBC assay
Method: as §1, §5, §6

[12] = system: Staphylococcus warneri ATCC 27836; assay: MBC assay
Method: as §1, §5, §6

[13] = system: Staphylococcus xylosus ATCC 29971; assay: MBC assay
Method: as §1, §5, §6

[14] = system: Actinomyces naeslundii ATCC 12104; assay: MBC assay
Method: as §5, §6

[15] = system: Bacillus cereus ATCC 11778; assay: MBC assay
Method: as §5, §6

[16] = system: Clostridium difficile ATCC 7000057; assay: MBC assay
Method: as §5, §6

[17] = system: Clostridium sporogenes ATCC 3584; assay: MBC assay
Method: as §5, §6

[18] = system: Corynebacterium mucifaciens ATCC 700355; assay: MBC assay; details: ATCC700355
Method: as §5, §6

[19] = system: Enterococcus faecalis ATCC 29212; assay: MBC assay; details: ATCC29212
Method: as §5, §6

[20] = system: Gardnerella vaginalis ATCC 14018; assay: MBC assay
Method: as §5, §6

[21] = system: Listeria monocytogenes ATCC 15313; assay: MBC assay
Method: as §5, §6

[22] = system: Prevotella nigrescens ATCC 33563; assay: MBC assay
Method: as §5, §6

[23] = system: Streptococcus pyogenes ATCC 12344; assay: MBC assay
Method: as §5, §6

[24] = system: Streptococcus sobrinus ATCC 33478; assay: MBC assay
Method: as §5, §6

[25] = system: Porphyromonas gingivalis ATCC 53978; assay: MBC assay
Method: (§7) The P. gingivalis strains were cultured and maintained on Wilkins-Chalgren Anaerobe Medium (agar and broth) at pH 7.0; all cultures were incubated anaerobically at 37° C. for 5-7 days.
as §5, §6

[26] = system: Porphyromonas gingivalis ATCC BAA-308; assay: MBC assay
Method: as §7, §5, §6

[27] = system: Porphyromonas gingivalis NCTC 11834; assay: MBC assay
Method: as §7, §5, §6

For Cc1cc(Cc2cc(C)cc(C(C)(C)C)c2O)c(O)c(C(C)(C)C)c1 [AO 2246, 2,2′-methylene-bis(4-methyl-6-tert-butylphenol)], the MIC (S. aureus ATCC 12601) was 1.95 µg/mL (≈ 5.73 µM), the MIC (S. aureus CPHL VISA Mu50) was 0.98 µg/mL (≈ 2.88 µM) and the MIC [1] was 3.9 µg/mL (≈ 11.5 µM). For the same compound, the “MIC/MBC Ratio” value [2] was 0.5, the MBC ([2]; Staphylococcus epidermidis, NCTC11047) was 7.8 µg/mL (≈ 22.9 µM) and the “MIC/MBC Ratio” value [3] was 1. The MBC ([3]; Staphylococcus saprophyticus, NCTC7292) was 3.9 µg/mL (≈ 11.5 µM), the “MIC/MBC Ratio” value [4] was 0.06 and the MBC ([4]; ATCC12600) was 15.6 µg/mL (≈ 45.8 µM). The MIC/MBC Ratio [5] was 0.5, the MBC ([5]; Staphylococcus aureus, ATCC29213) was 7.8 µg/mL (≈ 22.9 µM) and the “MIC/MBC Ratio” value [6] was 0.5. The MBC ([6]; ATCC33753) was 3.9 µg/mL (≈ 11.5 µM), the “MIC/MBC Ratio” value [7] was 0.25 and the MBC ([7]; ATCC27840) was 15.6 µg/mL (≈ 45.8 µM). The “MIC/MBC Ratio” value [8] was 1, the MBC ([8]; ATCC29974) was 3.9 µg/mL (≈ 11.5 µM) and the “MIC/MBC Ratio” value [9] was 1. The MBC ([9]; ATCC29970) was 3.9 µg/mL (≈ 11.5 µM), the “MIC/MBC Ratio” value [10] was 0.25 and the MBC ([10]; ATCC27844) was 31.2 µg/mL (≈ 91.8 µM). The “MIC/MBC Ratio” value [11] was 0.5, the MBC ([11]; ATCC27848) was 31.2 µg/mL (≈ 91.8 µM) and the “MIC/MBC Ratio” value [12] was less than 0.5. For the same compound, the MBC ([12]; ATCC27836) was greater than 31.2 µg/mL, the “MIC/MBC Ratio” value [13] was 1 and the MBC ([13]; ATCC29971) was 3.9 µg/mL (≈ 11.5 µM). For the same compound, the “MIC/MBC Ratio” value [14] was 0.5, the MBC ([14]; ATCC12104) was 3.9 µg/mL (≈ 11.5 µM) and the “MIC/MBC Ratio” value [15] was 0.5. The MBC ([15]; ATCC11778) was 3.9 µg/mL (≈ 11.5 µM), the “MIC/MBC Ratio” value [16] was 1 and the MBC ([16]; Clostridioides difficile, ATCC7000057) was 3.9 µg/mL (≈ 11.5 µM). For the same compound, the “MIC/MBC Ratio” value [17] was 0.125, the MBC ([17]; ATCC3584) was 31.2 µg/mL (≈ 91.8 µM) and the MBC ([18]; Corynebacterium mucifaciens ATCC 700355) was 3.9 µg/mL (≈ 11.5 µM). For the same compound, the “MIC/MBC Ratio” value ([18]; Corynebacterium mucifaciens) was 0.5, the MBC ([19]; Enterococcus faecalis ATCC 29212) was 7.8 µg/mL (≈ 22.9 µM) and the “MIC/MBC Ratio” value ([19]; Enterococcus faecalis) was 0.25. The “MIC/MBC Ratio” value [20] was 1, the MBC ([20]; ATCC14018) was 15.6 µg/mL (≈ 45.8 µM) and the “MIC/MBC Ratio” value [21] was 0.25. The MBC ([21]; ATCC15313) was 7.8 µg/mL (≈ 22.9 µM), the “MIC/MBC Ratio” value [22] was less than 0.5 and the MBC ([22]; ATCC33563) was greater than 15.6 µg/mL. For the same compound, the “MIC/MBC Ratio” value [23] was 1, the MBC ([23]; ATCC12344) was 0.98 µg/mL (≈ 2.88 µM) and the “MIC/MBC Ratio” value [24] was 0.5. The MBC ([24]; ATCC33478) was 31.2 µg/mL (≈ 91.8 µM), the MBC [25] was 1.95 µg/mL (≈ 5.73 µM) and the “MIC/MBC Ratio” value [25] was 0.5. The “MIC/MBC Ratio” value [26] was 1, the MBC ([26]; ATCCBAA308) was 3.9 µg/mL (≈ 11.5 µM) and the “MIC/MBC Ratio” value [27] was 1. It also gave an MBC ([27]; NCTC11834) of 3.9 µg/mL (≈ 11.5 µM).
